Km data for two molecules are collected here from publication PMC2892419 (Biochemistry, 2010).

Assay [1] deals with Sgx9236b. Briefly: direct UV assay of deamination, […] nm. Type of assay: biochemical, Unknown prokaryotic organism (Sargasso Sea metagenome). The following applies: pH 8.5, 30 °C.
The test system of assay [2] is Sgx9236b. Briefly: direct UV assay of deamination, […] nm. Particulars: pH 8.5, 30 °C. Type of assay: biochemical, Unknown prokaryotic organism (Sargasso Sea metagenome). This is another data set of the same source.

A word on the Km: it is the substrate concentration at which the rate is half of its maximum. With `Nc1nc2[nH]c(=O)cnc2c(=O)[nH]1` [I, isoxanthopterin], in the assay on Sgx9236b [1], the Km amounted to 50 ± 10 µM. Take `Nc1nc2ncc(C(=O)O)nc2c(=O)[nH]1` [II, pterin-6-carboxylate]: in the assay on Sgx9236b [2], the Km was determined as 90 ± 30 µM.
